# Literature values in patent US20220354785A1, “ORAL LOZENGE PRODUCTS” (NICOVENTURES TRADING LIMITED, priority 2021, published 2022).
# What was measured:
# [1] = isomerizes to trans-bixin
# [2] = aqueous environment (e.g., saliva) / water
Compound,chemical stability when isolated [1],solubility in water [2],logP value
COC(=O)/C=C/C(C)=C\C=C\C(C)=C\C=C\C=C(C)\C=C\C=C(C)\C=C\C(=O)O [bixin],chemically unstable when isolated,insoluble in water,–
"C=C(C)[C@@H]1CCC(C)=C[C@H]1c1c(O)cc(CCCCC)cc1O [CBD, cannabidiol]",–,–,about 6.5
